Values of other authors, collected in patent US9114602B2, “Process for making lithographic printing plate” (FUJIFILM Corporation, priority 2011, dated 2015).

details: at 20° C.

solubility in water [g/100 mL]	Structure (SMILES)
2.7	OCCOc1ccccc1 [ethylene glycol monophenyl ether]
3.5	CC(C)(C)CO [neopentyl alcohol]
1.6	CCCOC(C)=O [propyl acetate]
4.4	CCCCOCC(C)O (centres unmarked) [propylene glycol mono-n-butyl ether]
1.7	CCC(=O)CC [diethyl ketone]
4.0	OCc1ccccc1 [benzyl alcohol]
6.5	CCCCOCCOCCOC(C)=O [diethylene glycol monobutyl ether acetate]

More lines, now with the values behind:

Structure (SMILES)	solubility in water [g/100 mL]
CCCCCCOCCO [Ethylene glycol mono-n-hexyl ether, reference compound]	1.0
CCCC(C)=O [Example 2-pentanone, 2-pentanone]	4.0
CC(C)CC(C)O (centres unmarked) [4-methyl-2-pentanol]	2.0
CCCCCO [Example 1-pentanol, 1-pentanol]	2.7
CCC(O)CC [Example 3-pentanol, 3-pentanol]	5.2
CC(=O)OC(C)C [isopropyl acetate]	4.3
CC(C)CCO [3-methyl-1-butanol]	2.7
CC(C)C(C)O (centres unmarked) [3-methyl-2-butanol]	5.6
CCCC(C)O (centres unmarked) [Example 2-pentanol, 2-pentanol]	4.5
CCC(C)CO (centres unmarked) [2-methyl-1-butanol]	3.0
